# How the values were obtained:
# Format in all cases: cell-based, human
# [1] = system: tetramer^low CD8TLs; assay: IFN-γ release by tetramer^low CD8TLs treated with galectin-3 binders or neuraminidase; details: CD8TLs collected 3-4 days after stimulation
# Description: To test this, tetramer^low CD8TLs, collected 3-4 days after stimulation, as described supra, were treated with LacNAc, a known competitive binder of galectin-3. Release of IFN-γ was restored.
# These experiments were repeated testing two other galectin-3 binders, “tri-LacNAc,” and an antibody against the N-terminus of galectin-3.
# The experiments described herein, using neuraminidase, were carried out on human CD8TLs, and the results parallel those observed by Kao, et al., Immunol., 17:1607-1617 (2005), on murine cells. It is hypothesized that a sialic acid residue may be present, near the LacNAc motif of galectin-binding proteins, and act to increase galectin-3 affinity.
# [2] = system: CD8+ TILs from gastric carcinoma ascites; assay: TCR CD8 FRET on CD8+ TILs; details: 1 mM LacNAc, 37° C., 5 hours of treatment; compared with tetramer^high CD8TL A10
# Description: (§1) To elaborate, samples of 2×10^5 cells were washed in Hank's medium that had been supplemented with 1% human serum, and were then resuspended, in 50 μl of medium, which contained either an anti-TCRβ-PE antibody (the “donor” antibody), or an anti-CD8α-Alexa647 antibody (the “acceptor” antibody), or both. The former was diluted at 1/20 and the latter, at 1/300.
# (§2) Samples were incubated for 30 minutes at 4° C., washed, and fixed with paraformaldehyde (2% w/v in PBS). Analysis was carried out on a FACS system, and transfer of fluorescence was calculated as FRET units, in accordance with Doucey, et al., J. Biol. Chem., 278:3257-3264 (2003), incorporated by reference. A FRET unit is defined as: [E3both−E3none]−[(E3A647−E3none)×(E2both/E2A647)]−[(E3PE−3none)×(E1both/E1PE)]
# These experiments tested the impact of N-acetyllactosamine (LacNAc) on colocalization. Gastric carcinoma ascites were screened for CD8^+ TILs, after they had been incubated for various time periods at 37° C., with 1 mM of LacNAc, and washed. As a control, the line CD8TL A10 was used, two weeks after its last antigenic stimulation.
# [3] = system: CD8TL clone A10; assay: IFN-γ production following antigenic stimulation; details: for ability to release IFN-γ upon antigenic stimulation: tetramer^low cells, day 4 after stimulation, incubated 2 hours, o-phenantholin 30 μM, lactose 100 mM, LacNAc 1 mM, sucrose 100 nM, vs untreated cells
# Description: In addition to the experiments set forth, supra the effector capability of the T lymphocytes was tested, at various points during the period in which they were stimulated. Stimulation conditions are set forth in Example 1, supra. The effector activity was determined by contacting samples of 5000 CD8TLs with 2×10^5 HLA-A1 EBV-B cells which had been incubated for one hour with 1 μM of the peptide of SEQ ID NO: 1 at 37° C., and co-culturing the mixed sample, overnight. The amounts of IFN-γ and IL-2 resulting from the activation of the T cells were measured in the supernatants of the co-cultured cells via ELISAs.
# (§3) To test this, cells of CD8TL clone A10 were collected, on days 0 and 4, after stimulation with HLA-A1^+, MAGE-3^+ tumor cells. Mean fluorescence indices were determined for both the high and low staining populations, on days 0 and 4. […] staining was carried out, as described supra, with cells that were either incubated with no test substance, or which had been incubated for 2 hours, on day 4, with one of o-phenantholin (30 μM), a known Zn chelator, lactose, (100 mM), LacNAc (1 mM), or sucrose (100 nM). The rationale behind the incubation with lactose, LacNAc, and sucrose is explained in Example 11. A final sample was incubated with swainsonin (0.5 μM) on day 0, before the cells were stimulated.
# (§4) The cells were then washed, and analyzed for all of tetramer staining, proximity of the molecules via FRET, and IFN-γ production following antigenic stimulation.
# [4] = system: CD8TL clone A10; assay: FRET analysis of TCR-CD8 proximity on tetramer^low CD8TLs; details: for FRET between TCR and CD8 (TCR-CD8 proximity): tetramer^low cells, day 4 after stimulation, incubated 2 hours, o-phenantholin 30 μM, lactose 100 mM, LacNAc 1 mM, sucrose 100 nM, vs untreated cells
# Description: as §1, §2
# E1 is the fluorescence detected at 580 nm, following excitation at 488 nm. E2 is fluorescence detected at 670 nm, following excitation at 630 nm, and E3 is fluorescence detected at 670 nm following excitation at 488 nm.
# After the molecules are excited at the donor level, transfer of energy from donor to acceptor happens only if the distance between two molecules is less than 10 nm, with energy transfer being measured by emission at the acceptor wavelength.
# as §3, §4
# [5] = system: CD8TL clone A10; assay: HLA-peptide tetramer staining of tetramer^low CD8TLs; details: for tetramer staining (ability to bind tetramers): tetramer^low cells, day 4 after stimulation, incubated 2 hours, o-phenantholin 30 μM, lactose 100 mM, LacNAc 1 mM, sucrose 100 nM, vs untreated cells
# Description: Fourteen days after the stimulation, the CD8TLs were then stained with complexes of HLA-A0101 folded with SEQ ID NO: 1, prepared as described by Coulie, et al., Proc. Natl. Acad. Sci. USA, 98:10290-10295 (2001), incorporated by reference. The complexes were biotinylated and then labeled with phycoerythrin (“PE”), using known methods. Staining was accomplished by incubating CD8TLs, for 10 minutes, at room temperature, with 5 nM of tetramer, and then washing.
# as §3, §4
# [6] = system: kidney infiltrating T cells isolated from the kidney allograft; assay: IFN-γ production by functional kidney infiltrating T cells; details: LacNAc treatment; stimulation with allogeneic EBV-B cells or anti-CD3/CD28 beads
# Source text: A standard depletion strategy was used to isolate CD8^+ T cells from a breast carcinoma metastasis, ovarian carcinoma ascites, blood, and a kidney allograft that had been resected during a chronic rejection process.
# As was noted supra, there was clear TCR CD8 FRET on kidney infiltrating T cells isolated from the kidney allograft. These T cells released IFN-γ upon stimulation with allogeneic EBV-B cells, or beads coated with anti-CD3/CD28 antibodies.
# Different treatments were not, however, unspecific.
# [7] = system: TILs from ovarian cancer ascites; assay: IFN-γ response of anergic TILs to stimulation; details: overnight incubation with 1 mM LacNAc
# Description: It was confirmed by the fact that, notwithstanding overnight stimulation with a mixed population of tumor cells, B cells, and macrophages collected from the same ascites, or with allogenic EBV-β cells. IFNγ was not produced.
# When these anergic TILs were incubated overnight with 1 mM LacNAc, their IFN-γ response increased more than 10 fold.
# [8] = swainsonin 0.5 μM added on day 0 before restimulation, read at day 4
SMILES,release of IFN-γ by tetramer^low CD8TLs [1],TCR CD8 FRET on TILs [2],ability to release IFN-γ upon antigenic stimulation [3],FRET between TCR and CD8 (TCR-CD8 proximity) [4],tetramer staining (ability to bind tetramers) [5],IFN-γ production of kidney infiltrating T cells [6],increase of IFN-γ response to antigen stimulation [7],ability to release IFN-γ when restimulated ([3]; swainsonin 0.5 μM added on day 0 before restimulation),"FRET efficiency (TCR-CD8) [4, 8]","tetramer staining [5, 8]"
"CC(=O)N[C@H]1C(O)O[C@H](CO)[C@@H](O[C@@H]2O[C@H](CO)[C@H](O)[C@H](O)[C@H]2O)[C@@H]1O (stereo partly shown) [LacNAc, N-acetyl lactosamine]",restored,recovered the same level of TCR CD8 FRET,higher ability to release IFN-γ,higher FRET efficiencies,higher degrees of tetramer staining,did not result in increased IFN-γ production,more than 10 fold,–,–,–
"OC[C@H]1O[C@@](CO)(O[C@H]2O[C@H](CO)[C@@H](O)[C@H](O)[C@H]2O)[C@@H](O)[C@@H]1O [Sucrose, sucrose]",–,–,no effect,no effect,no effect,–,–,–,–,–
"O[C@H]1[C@H]2[C@H](O)CCCN2C[C@H]1O [Swainsonin, swainsonin]",–,–,–,–,–,–,–,higher ability to release IFN-γ,higher FRET efficiency,higher tetramer staining
OC[C@H]1O[C@@H](O[C@H]2[C@H](O)[C@@H](O)C(O)O[C@@H]2CO)[C@H](O)[C@@H](O)[C@H]1O (stereo partly shown) [lactose],–,–,higher ability to release IFN-γ,higher FRET efficiencies,higher degrees of tetramer staining,–,–,–,–,–
c1cnc2c(c1)ccc1cccnc12 [o-phenantholin],–,–,regained,regained FRET exchanges between the 2 molecules,regained,–,–,–,–,–
